Data set [1] is described as follows: log P by HPLC on reversed-phase column (C 18), EEC Directive 79/831 Annex V.A8. The conditions noted are these: 40° C., 0.1% aqueous formic acid and acetonitrile. The data set is classed as physicochemical. On the procedure: In table 1, the log P values were determined in accordance with EEC Directive 79/831 Annex V.A8 by HPLC (High Performance Liquid Chromatography) on a reversed-phase column (C 18), using the method described below: Temperature: 40° C.; Mobile phases: 0.1% aqueous formic acid and acetonitrile; linear gradient from 10% acetonitrile to 90% acetonitrile. Calibration was carried out using unbranched alkan-2-ones (comprising 3 to 16 carbon atoms) with known log P values (determination of the log P values by the retention times using linear interpolation between two successive alkanones). lambda-max-values were determined using UV-spectra from 200 nm to 400 nm and the peak values of the chromatographic signals.

The subject of another data set is Pyrenophora teres. The data set can be described thus: In vivo preventive test on Pyrenophora teres (barley). The conditions noted are these: 500 ppm of active ingredient, evaluated 7-9 days after inoculation. The procedure: In Vivo Preventive Test on Pyrenophora teres (Barley) • Solvent: 49 parts by weight of N,N-dimethylformamide • Emulsifier: 1 part by weight of alkylaryl polyglycol ether To produce a suitable preparation of active compound, 1 part by weight of active compound is mixed with the stated amounts of solvent and emulsifier, and the concentrate is diluted with water to the desired concentration. To test for preventive activity, young plants are sprayed with the preparation of active compound at the stated rate of application. One day after this treatment, the plants are inoculated with an aqueous spore suspension of Pyrenophora teres. The plants remain for 48 hours in an incubation cabinet at 22° C. and a relative atmospheric humidity of 100%. Then the plants are placed in a greenhouse at a temperature of approximately 20° C. and a relative atmospheric humidity of approximately 80%. The test is evaluated 7-9 days after the inoculation. 0% means an efficacy which corresponds to that of the untreated control while an efficacy of 100% means that no disease is observed.

In another data set the test system is Alternaria solani. In words: In vivo preventive test on Alternaria solani (tomato). The conditions noted are these: evaluated 7 days after inoculation. On the procedure:
In Vivo Preventive Test on Alternaria solani (Tomato) • Solvent: 49 parts by weight of N,N-dimethylformamide • Emulsifier: 1 part by weight of alkylarylpolyglycolether To produce a suitable preparation of active compound, 1 part by weight of active compound is mixed with the stated amounts of solvent and emulsifier, and the concentrate is diluted with water to the desired concentration. To test for preventive activity, young plants are sprayed with the preparation of active compound at the stated rate of application. One day after this treatment, the plants are inoculated with an aqueous spore suspension of Alternaria solani. The plants remain for one day in an incubation cabinet at approximately 22° C. and a relative atmospheric humidity of 100%. Then the plants are placed in an incubation cabinet at approximately 20° C. and a relative atmospheric humidity of 96%. The test is evaluated 7 days after the inoculation. 0% means an efficacy which corresponds to that of the untreated control while an efficacy of 100% means that no disease is observed.

For `COCCCC1CCCCN1C(=O)c1c(C(F)F)nn(C)c1Cl` (centres unmarked) [Example 46], the log partition coefficient (logP) (commonly a log measure of how a compound divides between an organic and an aqueous phase) in data set [1] is 2.33.
Regarding `Cn1nc(C(F)F)c(C(=O)N2CCCCC2C(F)(F)F)c1F` (centres unmarked) [Example 19], the logP in data set [1] was found to be 2.63. Further, in the data set with Pyrenophora teres, the Efficacy amounted to 94%.
In the case of `Cn1nc(C(F)F)c(C(=O)N2CCCC2C23CC4CC(CC(C4)C2)C3)c1Cl` (centres unmarked) [Example 13], in data set [1], the lipophilicity (logP) turned out to be 4.67. The Efficacy with Alternaria solani (500 ppm of active ingredient) is recorded as 94%; in the data set with Pyrenophora teres, 100%.
With `Cn1cc(C(=O)N2CCCCC2CCOCCC2CCCCC2)c(C(F)F)n1` (centres unmarked) [Example 42], the logP in data set [1] stood at 4.23. In addition, the Efficacy in the data set with Alternaria solani (500 ppm of active ingredient) stood at 78%; in the data set on Pyrenophora teres, 95%.
For the compound `CCCCCCC1CCCCN1C(=O)c1c(C(F)F)nn(C)c1F` (centres unmarked) [Example 22], the log partition coefficient (logP) in data set [1] is on record as 4.18. Besides, the Efficacy in the data set on Alternaria solani (500 ppm of active ingredient) and in the data set with Pyrenophora teres was 100% throughout.
As to `Cn1nc(C(F)F)c(C(=S)N2CCCC2C23CC4CC(CC(C4)C2)C3)c1F` (centres unmarked) [Example 52], the logP in data set [1] is reported as 4.51.
In data set [1], `CCCCOCCC1CCCCN1C(=O)c1c(C(F)F)nn(C)c1Cl` (centres unmarked) [Example 31] registered a log partition coefficient (logP) of 3.35. Further, the Efficacy in the data set with Alternaria solani (500 ppm of active ingredient) was 89%; in the data set with Pyrenophora teres it was 90%.
The matching figures for `CCCCCCC1CCCN1C(=O)c1cn(C)nc1C(F)F` (centres unmarked) [Example 6]: 3.37, 94% and 95%.
In turn, `Cn1nc(C(F)F)c(C(=S)N2CCCC2CC2CCCCC2)c1F` (centres unmarked) [Example 51] yielded a logP in data set [1] of 3.96.
Consider `COCCCOCCC1CCCCN1C(=O)c1c(C(F)F)nn(C)c1F` (centres unmarked) [Example 40], for which the logP in data set [1] stood at 2.25. In addition, the Efficacy came out at 94% in the data set on Alternaria solani (500 ppm of active ingredient) and 95% with Pyrenophora teres.
In data set [1], `Cn1nc(C(F)F)c(C(=O)N2CCCCC2CCOCC2CC2)c1Cl` (centres unmarked) [Example 34] showed a lipophilicity (logP) of 2.82. Moreover, the Efficacy in the data set on Pyrenophora teres is 94%.
For `CCCCCCC1CCCCN1C(=O)c1cn(C)nc1C(F)F` (centres unmarked) [Example 20], the logP in data set [1] was 3.71. The Efficacy is 94% in the data set on Alternaria solani (100 ppm of active ingredient), 100% in the data set with Alternaria solani (500 ppm of active ingredient) and 100% with Pyrenophora teres.
With `Cn1nc(C(F)F)c(C(=O)N2CCCCC2CCOCC2CC2)c1F` (centres unmarked) [Example 35], the logP in data set [1] is reported as 2.66. Besides, the Efficacy in the data set on Alternaria solani (500 ppm of active ingredient) and in the data set with Pyrenophora teres was 94% throughout.
As for `COCCCOCCC1CCCCN1C(=O)c1cn(C)nc1C(F)F` (centres unmarked) [Example 41], in data set [1], the logP is 1.96. In the data set on Pyrenophora teres, this compound had an Efficacy of 70%.
On to `CCCOCCC1CCCCN1C(=O)c1c(C(F)F)nn(C)c1Cl` (centres unmarked) [Example 28], for which the logP in data set [1] is 2.90.
The same measure, in the same setting: as for `COCCCC1CCCCN1C(=O)c1cn(C)nc1C(F)F` (centres unmarked) [Example 45], the figure is 1.88.
For `Cn1nc(C(F)F)c(C(=O)N2CCCCC2C(F)(F)F)c1Cl` (centres unmarked) [Example 18], in data set [1], the lipophilicity (logP) was determined as 2.80. In addition, the Efficacy with Pyrenophora teres was found to be 89%.
Consider `CCCOCCC1CCCCN1C(=O)c1cn(C)nc1C(F)F` (centres unmarked) [Example 27], for which, in data set [1], the log partition coefficient (logP) amounted to 2.39.
Regarding `Cn1nc(C(F)F)c(C(=O)N2CCCCC2CCOCCC2CCCCC2)c1Cl` (centres unmarked) [Example 43], the log partition coefficient (logP) in data set [1] is given as 4.87. The Efficacy with Pyrenophora teres is 90%.
The matching figures for `Cn1cc(C(=O)N2CCCCC2CCOCC2CC2)c(C(F)F)n1` (centres unmarked) [Example 33]: 2.32 and 94%.
The matching figures for `Cn1nc(C(F)F)c(C(=O)N2CCCC2C(F)(F)F)c1F` (centres unmarked) [Example 2]: 2.25 and 100%.
With `Cn1cc(C(=O)N2CCCCC2CCOCC2CCC2)c(C(F)F)n1` (centres unmarked) [Example 38], the logP in data set [1] stood at 2.92. In the data set with Pyrenophora teres, this compound displayed an Efficacy of 89%.
Take `COCCCOCCC1CCCCN1C(=O)c1c(C(F)F)nn(C)c1Cl` (centres unmarked) [Example 39]: the lipophilicity (logP) in data set [1] worked out at 2.39.
`Cn1nc(C(F)F)c(C(=O)N2CCCC2C(F)(F)F)c1Cl` (centres unmarked) [Example 1] had a log partition coefficient (logP) in data set [1] of 2.39. Besides, in the data set with Pyrenophora teres, the Efficacy came to 100%.

Source of the values: patent US9357778B2, “N-acyl-2-(cyclo)alkypyrrolidines and piperidines useful as fungicides” (BAYER CROPSCIENCE AG, priority 2012, dated 2016).
